The values that follow come from patent US9115092B2, “Substituted quinazoline and pyrido-pyrimidine derivatives” (Asana Biosciences, LLC, priority 2010, dated 2015).

Test [1] addresses T1, PI3Kα (wild-type), P110/P85α (Homo sapiens, UniProt P42336).
T1 construct: made in house; host or cells: SF9 insect cells
Briefly: PI3 Kinase TR-FRET assay, PI3Kα (wild-type). Type of test: biochemical. The method in brief:
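Sf9-expressed His-purified P110/P85α (5 ng) preincubated 60 min RT with compound and PIP2 in buffer with 40 mM MgCl2, 5 mM DTT; reaction started with ATP (PIP2 and ATP both 10 μM), 30 min RT. PIP3 detected by TR-FRET displacement, 665/615 nm ratio; IC50 from dose-response curves.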

A further test relates to PC3 cells. Briefly: XTT assay for cell viability, PC3 cells. The format is cell-based, human. The essentials:
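PC3 cells seeded at 1000 cells/well, grown 24 h, then exposed to serial dilutions of compound for 96 h. Viability read by XTT dye at 37° C, absorbance 465 nm. EC50 from sigmoidal dose-response fit.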

A further test addresses T2, mTOR kinase (Homo sapiens, UniProt P42345).
T2 construct: purchased Millipore, USA
Briefly: mTOR kinase TR-FRET assay. The format is biochemical. As to conditions: read-out: mTO R. The method in brief:
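Compounds preincubated 60 min with mTOR (5 ng) in HEPES pH 7.5, EGTA, MnCl2; ULight-p70 S6K Thr389 peptide (50 nM) and ATP (20 μM) then added, 60 min at room temperature. EDTA-stopped, Eu-anti-phospho antibody detection by TR-FRET (665/615 nm); IC50 from variable-slope sigmoidal fit.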
On the technique in general: Time-resolved FRET reads energy transfer from a long-lived donor to a nearby acceptor.

In test [2] the test system is pS6RP(S235/236), PC3 cells. Briefly: In-cell Western assay, pS6RP(S235/236) in PC3 cells. Type of test: cell-based, human. As for the experimental part:
Cells from human prostate cancer cell line PC3 (American Type Culture Collection (ATCC), Manassas, Va. 20108 USA) were seeded at an optimal density of 22,000 cell/well in 96-well plates containing Ham's F12K medium (90 μL) and incubated overnight. The compound dilutions were carried out in 100% DMSO followed by a dilution in the medium. Test compounds were added in serial dilutions to the wells and incubated for 2 h. The cells were washed and fixed with 4% paraformaldehyde. After incubation at room temperature for 1 h in the dark, blocking was done for 2 h at room temperature. Primary antibodies for phosphorylated (p) AKT(5473) (phosphorylated at serine 473), pAKT(T308) (phosphorylated at threonine 308) and for pS6RP(S235/236) (phosphorylated at serine 235/236) (commercially available from Cell Signaling Technology®, whose protocol was followed for the in-cell western assay, were diluted to the required concentration and added to the corresponding wells followed by overnight incubation at 4° C. Eu-labeled rabbit (PE) (Perkin-Elmer USA catalog #AD0106) secondary antibody was added and incubated for 2 h at room temperature. Delfia® enhancement solution (cat #1244-105, Perkin Elmer USA) was subsequently added to the plate before taking the reading at 615 nm with excitation wavelength of 340 nm, after which 0.5 μg/mL of Hoechst® 33258 dye (Catalog #86140-5, Sigma) was added to the plate and fluorescence emission was read at 460 nm with 355 nm excitation, to evaluate the correction factor. IC50 values were calculated using a sigmoidal dose-response curve fit in GraphPad Prism® v5 software.

Where [3] appears, read: Homo sapiens, PC-3, cell viability.
Where [4] appears, read: Homo sapiens, PC-3, In-cell Western.

T1 sequence (P42336 whole entry): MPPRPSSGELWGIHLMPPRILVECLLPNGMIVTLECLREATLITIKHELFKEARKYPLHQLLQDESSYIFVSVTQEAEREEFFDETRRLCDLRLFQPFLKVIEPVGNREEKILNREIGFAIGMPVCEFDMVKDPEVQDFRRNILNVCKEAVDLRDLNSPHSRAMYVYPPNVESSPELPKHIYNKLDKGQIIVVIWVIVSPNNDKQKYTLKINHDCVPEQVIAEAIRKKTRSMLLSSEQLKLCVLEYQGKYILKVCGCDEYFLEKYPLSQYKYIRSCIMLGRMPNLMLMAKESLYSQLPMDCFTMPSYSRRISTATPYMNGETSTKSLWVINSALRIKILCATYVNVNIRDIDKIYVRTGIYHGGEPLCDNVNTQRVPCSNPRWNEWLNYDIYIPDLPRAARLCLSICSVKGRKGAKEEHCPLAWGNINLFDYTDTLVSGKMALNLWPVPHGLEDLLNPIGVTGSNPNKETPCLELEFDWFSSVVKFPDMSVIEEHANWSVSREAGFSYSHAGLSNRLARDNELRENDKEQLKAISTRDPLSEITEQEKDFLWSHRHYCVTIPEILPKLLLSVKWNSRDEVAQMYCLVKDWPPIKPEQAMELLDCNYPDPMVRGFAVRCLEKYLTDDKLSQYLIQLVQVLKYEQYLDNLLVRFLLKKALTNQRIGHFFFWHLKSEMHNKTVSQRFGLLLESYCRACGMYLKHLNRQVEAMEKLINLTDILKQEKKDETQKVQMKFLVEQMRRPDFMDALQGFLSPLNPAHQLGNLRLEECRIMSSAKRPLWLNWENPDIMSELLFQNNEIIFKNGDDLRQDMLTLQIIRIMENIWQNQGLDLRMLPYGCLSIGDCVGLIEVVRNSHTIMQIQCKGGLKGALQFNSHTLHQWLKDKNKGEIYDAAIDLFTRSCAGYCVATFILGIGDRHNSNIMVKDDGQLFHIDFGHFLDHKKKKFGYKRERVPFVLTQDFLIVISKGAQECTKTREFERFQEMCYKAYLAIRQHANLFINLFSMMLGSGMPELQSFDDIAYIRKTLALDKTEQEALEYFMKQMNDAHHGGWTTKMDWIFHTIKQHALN
T1 sequence (P27986 whole entry partner): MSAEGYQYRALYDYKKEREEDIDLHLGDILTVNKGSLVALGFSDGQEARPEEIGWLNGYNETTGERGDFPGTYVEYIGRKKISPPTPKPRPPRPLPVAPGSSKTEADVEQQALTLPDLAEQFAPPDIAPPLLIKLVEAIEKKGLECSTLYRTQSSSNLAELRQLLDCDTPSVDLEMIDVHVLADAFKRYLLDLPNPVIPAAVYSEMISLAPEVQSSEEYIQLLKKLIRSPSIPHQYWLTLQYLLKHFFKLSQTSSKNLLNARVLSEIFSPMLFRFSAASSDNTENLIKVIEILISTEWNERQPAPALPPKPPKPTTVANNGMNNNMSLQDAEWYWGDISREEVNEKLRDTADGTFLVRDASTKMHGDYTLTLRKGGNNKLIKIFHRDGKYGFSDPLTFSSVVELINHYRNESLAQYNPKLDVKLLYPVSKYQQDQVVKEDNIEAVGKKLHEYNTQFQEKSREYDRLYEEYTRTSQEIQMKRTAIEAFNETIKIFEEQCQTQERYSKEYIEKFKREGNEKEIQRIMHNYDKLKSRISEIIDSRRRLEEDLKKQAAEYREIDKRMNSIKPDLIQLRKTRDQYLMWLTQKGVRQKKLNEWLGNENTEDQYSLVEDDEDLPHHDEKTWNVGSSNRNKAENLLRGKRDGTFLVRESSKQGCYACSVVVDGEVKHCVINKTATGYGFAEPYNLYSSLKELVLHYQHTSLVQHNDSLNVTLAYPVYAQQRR

For the compound `CN(C)C(=O)c1ccc(NC(=O)Nc2ccc(-c3nc(N4CCOCC4)c4ccc(-c5cnn(C)c5)cc4n3)cn2)cc1` [Example 55, N,N-dimethyl-4-(3-{5-[7-(1-methyl-1H-pyrazol-4-yl)-4-morpholin-4-yl-quinazolin-2-yl]-pyridin-2-yl}-ureido)-benzamide], the IC50 was below 50 nM in test [1], 100 to 500 nM with PC3 cells (setting [3]), below 50 nM on mTOR kinase and below 100 nM in test [2] (setting [4]).
Take `Cc1ccncc1-c1ccc2c(N3CCOCC3)nc(-c3ccc(NC(=O)Nc4ccc(C(=O)N(C)C)cc4)cc3)nc2c1` [Example 62, N,N-dimethyl-4-(3-{4-[7-(4-methyl-pyridin-3-yl)-4-morpholin-4-yl-quinazolin-2-yl]-phenyl}-ureido)-benzamide]: the IC50 in test [1] is below 50 nM; in the test on PC3 cells (setting [3]), 100 to 500 nM; on mTOR kinase, below 50 nM; in test [2] (setting [4]), below 100 nM.
With `Cc1ccc(-c2ccc3c(N4CCOCC4)nc(-c4ccc(NC(=O)Nc5ccc(C(=O)N(C)CCN(C)C)cc5)cc4)nc3c2)o1` [Example 63, N-(2-dimethylamino-ethyl)-N-methyl-4-(3-{4-[7-(5-methyl-furan-2-yl)-4-morpholin-4-yl-quinazolin-2-yl]-phenyl}-ureido)-benzamide], the IC50 in test [1] was below 50 nM; in the test with PC3 cells (setting [3]) it was 100 to 500 nM; at mTOR kinase it was below 50 nM; in test [2] (setting [4]), 100 to 500 nM.
`CN(C)C(=O)c1ccc(NC(=O)Nc2ccc(-c3nc(N4CCOCC4)c4ccc(-c5ccncc5F)cc4n3)cc2)cc1` [Example 65, 4-(3-{4-[7-(3-fluoro-pyridin-4-yl)-4-morpholin-4-yl-quinazolin-2-yl]-phenyl}-ureido)-N,N-dimethyl-benzamide]: the IC50 is below 50 nM in test [1], 100 to 500 nM with PC3 cells (setting [3]), below 50 nM at mTOR kinase and below 100 nM in test [2] (setting [4]).
For the compound `CC(=O)Nc1cncc(-c2ccc3c(N4CCOCC4)nc(-c4ccc(NC(=O)Nc5ccc(C(=O)N(C)C)cc5)cc4)nc3c2)c1` [Example 66, 4-(3-{4-[7-(5-acetylamino-pyridin-3-yl)-4-morpholin-4-yl-quinazolin-2-yl]-phenyl}-ureido)-N,N-dimethyl-benzamide], the IC50 in test [1] was below 50 nM; with PC3 cells (setting [3]) it was 100 to 500 nM; on mTOR kinase it was below 50 nM; in test [2] (setting [4]), below 100 nM.
For `CN1CCN(C(=O)c2ccc(NC(=O)Nc3ccc(-c4nc(N5CCOCC5)c5ccc(-c6ccncc6)cc5n4)cc3)cc2)CC1` [Example 69, 1-[4-(4-methyl-piperazine-1-carbonyl)-phenyl]-3-[4-(4-morpholin-4-yl-7-pyridin-4-yl-quinazolin-2-yl)-phenyl]-urea], the IC50 in test [1] was below 50 nM; in the test with PC3 cells (setting [3]), 100 to 500 nM; on mTOR kinase, below 50 nM; in test [2] (setting [4]) it was below 100 nM.
For the compound `CN(C)CCN(C)C(=O)c1ccc(NC(=O)Nc2ccc(-c3nc(N4CCOCC4)c4ccc(-c5ccncc5)cc4n3)cc2)cc1` [Example 72, N-(2-dimethylamino-ethyl)-N-methyl-4-{3-[4-(4-morpholin-4-yl-7-pyridin-4-yl-quinazolin-2-yl)-phenyl]-ureido}-benzamide], the IC50 in test [1] was below 50 nM; with PC3 cells (setting [3]), 100 to 500 nM; at mTOR kinase it was below 50 nM; in test [2] (setting [4]), below 100 nM.
On to `CN(C)C(=O)c1ccc(NC(=O)Nc2ccc(-c3nc(N4CCOCC4)c4ccc(-c5ccco5)cc4n3)cc2)cc1` [Example 80, N,N-dimethyl-4-(3-{4-[7-(furan-2-yl)-4-morpholin-4-yl-quinazolin-2-yl]-phenyl}-ureido)-benzamide], for which the IC50 in test [1] was below 50 nM; in the test with PC3 cells (cell viability), below 100 nM; on mTOR kinase, below 50 nM; in test [2] (In-cell Western), below 100 nM.
On to `CN(C)C1CCN(C(=O)c2ccc(NC(=O)Nc3ccc(-c4nc(N5CCOCC5)c5ccc(-c6cccnc6F)cc5n4)cn3)cc2)CC1` [Example 81, 1-(4-(4-(dimethylamino)piperidine-1-carbonyl)phenyl)-3-(5-(7-(2-fluoropyridin-3-yl)-4-morpholine-quinazolin-2-yl)pyridin-2-yl)urea], for which the IC50 in test [1] was below 50 nM; in the test with PC3 cells (setting [3]), 501 to 5000 nM; at mTOR kinase, below 50 nM; in test [2] (setting [4]) it was below 100 nM.
In the case of `CN(C)CCn1cc(-c2ccc3c(N4CCOCC4)nc(-c4ccc(NC(=O)Nc5ccc(C(=O)N(C)C)cc5)cc4)nc3c2)cn1` [Example 83, 4-(3-(4-(7-(1-(2-(dimethylamino)ethyl)-1H-pyrazol-4-yl)-4-morpholino-quinazolin-2-yl)phenyl)ureido)-N,N-dimethyl-benzamide], the IC50 in test [1] was 50 to 200 nM; with PC3 cells (setting [3]) it was 201 to 10000 nM; at mTOR kinase, below 50 nM; in test [2] (setting [4]), 201 to 10000 nM.
As to `CN(C)C(=O)c1ccc(NC(=O)Nc2ccc(-c3nc(N4CCOCC4)c4ccc(-c5cncnc5)cc4n3)cc2F)cc1` [Example 84, 4-(3-(2-fluoro-4-(4-morpholino-7-(pyrimidin-5-yl)quinazolin-2-yl)phenyl)ureido)-N,N-dimethyl-benzamide], the IC50 was 50 to 200 nM in test [1], 201 to 10000 nM in the test with PC3 cells (setting [3]), below 50 nM on mTOR kinase and 201 to 10000 nM in test [2] (setting [4]).
On to `CN(C)C(=O)c1ccc(NC(=O)Nc2ccc(-c3nc(N4CCOCC4)c4ncc(-c5cnn(C)c5)cc4n3)cn2)cc1` [Example 85, N,N-dimethyl-4-(3-(5-(7-(1-methyl-1H-pyrazol-4-yl)-4-morpholino-pyrido[3,2-d]pyrimidin-2-yl)pyridin-2-yl)ureido)-benzamide], for which the IC50 in test [1] is below 50 nM; in the test with PC3 cells (setting [3]) it was 201 to 10000 nM; on mTOR kinase, below 50 nM; in test [2] (setting [4]) it was 201 to 10000 nM.
With `CN(C)C(=O)c1ccc(NC(=O)Nc2ccc(-c3nc(N4CCOCC4)c4ccc(-c5ccnnc5)cc4n3)cc2)cc1` [Example 86, N,N-dimethyl-4-(3-(4-(4-morpholino-7-(pyridazin-4-yl)quinazolin-2-yl)phenyl)ureido)-benzamide], the IC50 was 50 to 200 nM in test [1], 201 to 10000 nM with PC3 cells (setting [3]), below 50 nM on mTOR kinase and 201 to 10000 nM in test [2] (setting [4]).
As for `Cc1ccc(-c2cc3nc(-c4ccc(NC(=O)Nc5ccc(C(=O)N(C)C)cc5)cc4)nc(N4CCOCC4)c3cc2F)o1` [Example 87, 4-(3-(4-(6-fluoro-7-(5-methylfuran-2-yl)-4-morpholino-quinazolin-2-yl)phenyl)ureido)-N,N-dimethyl-benzamide], the IC50 in test [1] was 50 to 200 nM; in the test with PC3 cells (setting [3]) it was below 100 nM; at mTOR kinase, below 50 nM; in test [2] (setting [4]) it was below 100 nM.
Regarding `CNC(=O)c1ccc(NC(=O)Nc2ccc(-c3nc(N4CCOCC4)c4ccc(-c5cncnc5)cc4n3)cc2)cc1` [Example 88, N-methyl-4-(3-(4-(4-morpholino-7-(pyrimidin-5-yl)quinazolin-2-yl)phenyl)ureido)-benzamide], the IC50 is 50 to 200 nM in test [1], 201 to 10000 nM in the test on PC3 cells (setting [3]), below 50 nM at mTOR kinase and below 100 nM in test [2] (setting [4]).
On to `CNC(=O)c1ccc(NC(=O)Nc2ccc(-c3nc(N4CCOCC4)c4ncc(-c5cnn(C)c5)cc4n3)cc2)cc1` [Example 89, N-methyl-4-(3-(4-(7-(1-methyl-1H-pyrazol-4-yl)-4-morpholino-pyrido[3,2-d]pyrimidin-2-yl)phenyl)ureido)-benzamide], for which the IC50 in test [1] was below 50 nM; in the test with PC3 cells (setting [3]), 201 to 10000 nM; on mTOR kinase it was below 50 nM; in test [2] (setting [4]), 201 to 10000 nM.
